Data as given in ChEMBL document CHEMBL1201862, “PubChem BioAssay data set” (2004).
Active and inactive are the calls of the source.

Key:
[1] = test system: Streptococcus sp. 'group A'; assay: growth inhibition of control SK(-) GAS strain, dose response, counter-screen for streptokinase expression inhibitor project, luminescence, kanamycin, BacTiterGlo, confirmation (AID 1900); format: functional, organism-based
[2] = inhibitors of intracellular T. cruzi replication, confirmation, NIH3T3 host cells, beta-gal luminescence (AID 2044); format: functional, cell-based;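 further: intracellular parasites grown in NIH/3T3 mouse fibroblasts as host cells; luminescent beta-galactosidase reporter signal from transgenic T. cruzi replicating inside host cells; inhibitors lower the luminescence signal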
[3] = cytotoxicity toward NIH3T3 fibroblasts, dose response, counter-screen, cell-based, ATP luminescence, mouse fibroblasts (AID 2010); format: functional;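 further: cells exposed to compound for about 90 hours before reading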
[4] = biological target: T1, Serine/threonine-protein phosphatase (Homo sapiens, UniProt Q9BPW0); assay: Counterscreen for inhibitors of PP1: fluorescence-based biochemical high throughput dose response assay to identify inhibitors of Protein Phosphatase 5 (PP5). [Related pubchem assays: 2034 (Summary (PP5 inhibitors)), 1987 (PP5 inhibitors in singlate), 2235 (PP1 inhibitors in singlate)]
T1 sequence (Q9BPW0 whole entry): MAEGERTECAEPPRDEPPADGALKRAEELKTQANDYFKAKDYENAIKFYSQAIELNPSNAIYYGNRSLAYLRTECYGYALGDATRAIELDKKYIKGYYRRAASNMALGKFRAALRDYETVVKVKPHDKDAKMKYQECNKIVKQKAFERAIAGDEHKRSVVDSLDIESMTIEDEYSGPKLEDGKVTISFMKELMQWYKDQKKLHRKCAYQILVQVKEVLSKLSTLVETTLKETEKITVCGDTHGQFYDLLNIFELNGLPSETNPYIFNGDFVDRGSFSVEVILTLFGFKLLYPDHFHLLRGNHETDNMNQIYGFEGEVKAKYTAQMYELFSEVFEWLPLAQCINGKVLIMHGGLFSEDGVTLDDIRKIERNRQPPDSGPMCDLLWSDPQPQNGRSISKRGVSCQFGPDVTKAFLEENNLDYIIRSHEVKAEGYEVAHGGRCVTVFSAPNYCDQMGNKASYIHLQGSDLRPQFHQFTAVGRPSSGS

[5] = biological target: Serine/threonine-protein phosphatase PP1-alpha catalytic subunit (Homo sapiens, UniProt P62136); assay: PP1 phosphatase inhibitors, dose response, biochemical, fluorescence (AID 2403);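 further: phosphatase turnover of OMFP into fluorescent 3-O-methylfluorescein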
Chain of Serine/threonine-protein phosphatase PP1-alpha catalytic subunit (P62136 whole entry): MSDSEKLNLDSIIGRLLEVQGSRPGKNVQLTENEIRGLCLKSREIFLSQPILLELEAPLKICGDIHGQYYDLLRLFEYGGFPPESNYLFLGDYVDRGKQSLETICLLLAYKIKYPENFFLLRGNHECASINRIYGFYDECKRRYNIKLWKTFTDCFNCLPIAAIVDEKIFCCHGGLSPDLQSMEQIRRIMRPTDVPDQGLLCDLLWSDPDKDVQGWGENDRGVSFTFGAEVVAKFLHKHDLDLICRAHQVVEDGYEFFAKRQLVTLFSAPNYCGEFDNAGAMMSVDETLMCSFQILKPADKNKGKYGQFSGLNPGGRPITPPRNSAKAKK

INS1 = assay: beta cell apoptosis inhibitors, cytokine rescue, dose response, luminescence, retest (AID 449756); format: functional, cell-based; details: Rattus norvegicus;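 further: cell death triggered by IL-1 beta plus TNF-alpha plus IFN-gamma mixture; protective hits raise ATP signal compared with cytokine alone wells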
Streptococcus = assay: Group A Streptococcus viability loss, dose response, counter-screen for streptokinase expression inhibitor project, luminescence, BacTiterGlo (AID 1915); format: functional, organism-based;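 further: potency for reduction of bacterial viability or growth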
Procathepsin L = Procathepsin L (Homo sapiens, UniProt P07711)
Chain of Procathepsin L (P07711 whole entry): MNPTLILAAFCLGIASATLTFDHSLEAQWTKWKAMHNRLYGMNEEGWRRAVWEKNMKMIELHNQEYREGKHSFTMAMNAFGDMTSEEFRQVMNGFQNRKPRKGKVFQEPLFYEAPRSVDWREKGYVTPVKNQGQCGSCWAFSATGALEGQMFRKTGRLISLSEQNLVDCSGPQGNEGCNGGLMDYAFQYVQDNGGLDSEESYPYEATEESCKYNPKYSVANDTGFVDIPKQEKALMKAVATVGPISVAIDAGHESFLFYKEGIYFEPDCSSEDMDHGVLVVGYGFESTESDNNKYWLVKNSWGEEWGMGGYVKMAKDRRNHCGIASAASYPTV

Aspartyl aminopeptidase = Aspartyl aminopeptidase (Plasmodium falciparum 3D7, UniProt Q8I2J3)
Chain of Aspartyl aminopeptidase (Q8I2J3 whole entry): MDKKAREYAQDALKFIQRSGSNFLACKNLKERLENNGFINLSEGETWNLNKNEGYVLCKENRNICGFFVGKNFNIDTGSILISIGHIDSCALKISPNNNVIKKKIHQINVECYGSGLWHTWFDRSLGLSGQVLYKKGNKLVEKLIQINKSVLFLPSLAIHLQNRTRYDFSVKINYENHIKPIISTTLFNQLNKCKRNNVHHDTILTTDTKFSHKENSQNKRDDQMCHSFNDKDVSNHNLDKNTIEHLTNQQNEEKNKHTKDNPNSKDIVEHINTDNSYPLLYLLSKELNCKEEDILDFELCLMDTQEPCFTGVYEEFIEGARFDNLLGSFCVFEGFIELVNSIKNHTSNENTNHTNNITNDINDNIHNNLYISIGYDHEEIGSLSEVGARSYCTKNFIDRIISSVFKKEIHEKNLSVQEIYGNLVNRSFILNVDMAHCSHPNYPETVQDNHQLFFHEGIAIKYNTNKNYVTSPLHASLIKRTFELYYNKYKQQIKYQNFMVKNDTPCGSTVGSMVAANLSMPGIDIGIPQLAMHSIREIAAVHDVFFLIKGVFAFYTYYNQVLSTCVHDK

[6] = biological target: T2, Rac GTPase-activating protein 1 (Homo sapiens, UniProt Q9H0H5); assay: MgcRacGAP GTPase-activating activity inhibitors, confirmation, biochemical, ADP Hunter fluorescence, primary and confirmatory (AID 624330); format: functional
T2 sequence (Q9H0H5 whole entry): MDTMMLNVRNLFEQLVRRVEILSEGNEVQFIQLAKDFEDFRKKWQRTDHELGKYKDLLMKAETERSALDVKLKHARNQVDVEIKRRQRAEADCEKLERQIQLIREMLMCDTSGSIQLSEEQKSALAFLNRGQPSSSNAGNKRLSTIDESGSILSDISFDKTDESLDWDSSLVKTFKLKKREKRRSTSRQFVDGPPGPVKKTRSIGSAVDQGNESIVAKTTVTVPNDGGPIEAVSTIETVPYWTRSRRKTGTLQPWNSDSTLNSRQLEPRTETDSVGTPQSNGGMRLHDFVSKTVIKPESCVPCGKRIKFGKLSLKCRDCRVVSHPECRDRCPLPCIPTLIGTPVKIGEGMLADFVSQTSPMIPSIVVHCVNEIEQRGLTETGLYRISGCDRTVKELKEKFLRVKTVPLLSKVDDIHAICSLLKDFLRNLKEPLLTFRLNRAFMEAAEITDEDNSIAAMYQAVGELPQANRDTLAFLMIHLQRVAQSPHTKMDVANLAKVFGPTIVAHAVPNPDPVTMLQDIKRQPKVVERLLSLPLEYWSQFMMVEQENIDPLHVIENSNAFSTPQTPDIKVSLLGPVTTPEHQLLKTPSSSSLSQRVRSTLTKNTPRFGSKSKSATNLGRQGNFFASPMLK

[7] = growth suppression of beta-catenin-knockout colon cells, dose response, cell-based, HCT116, human colon tumor (AID 1045); format: functional;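 further: HCT116 colon tumor cells with beta catenin knocked out; cells exposed to compound for 60 hours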
[8] = cytotoxicity in HEK-293T cells, dose response, cytotoxicity control for BCR NF-kB inhibitor project, luminescence, B-cell screen hits (AID 489021); format: functional, cell-based;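 further: HEK-293T cells carrying an NF-kB luciferase reporter; cells exposed to compound for about 14 hours before viability readout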
[9] = growth suppression of PTEN-null colon cells, dose response, cell-based, HCT116 PTEN knockout (AID 1047); format: functional;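 further: HCT116 colon tumor cells with PTEN knocked out; cells exposed to compound for 60 hours before readout; potency for loss of cell viability measured by luminescence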
[10] = biological target: T3, Heat shock factor protein 1 (Mus musculus, UniProt P38532); assay: HSF1 potentiators in luciferase reporter cells, confirmation, cell-based, NIH3T3, luminescence, dose retest (AID 435004); format: functional;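 further: stress induced by proteasome inhibitor MG132 added 30 min after compound; luciferase reporter driven by HSF1 response element in NIH3T3 cells; actives raise luminescence as potentiators of the MG132 stress response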
T3 sequence (P38532 whole entry): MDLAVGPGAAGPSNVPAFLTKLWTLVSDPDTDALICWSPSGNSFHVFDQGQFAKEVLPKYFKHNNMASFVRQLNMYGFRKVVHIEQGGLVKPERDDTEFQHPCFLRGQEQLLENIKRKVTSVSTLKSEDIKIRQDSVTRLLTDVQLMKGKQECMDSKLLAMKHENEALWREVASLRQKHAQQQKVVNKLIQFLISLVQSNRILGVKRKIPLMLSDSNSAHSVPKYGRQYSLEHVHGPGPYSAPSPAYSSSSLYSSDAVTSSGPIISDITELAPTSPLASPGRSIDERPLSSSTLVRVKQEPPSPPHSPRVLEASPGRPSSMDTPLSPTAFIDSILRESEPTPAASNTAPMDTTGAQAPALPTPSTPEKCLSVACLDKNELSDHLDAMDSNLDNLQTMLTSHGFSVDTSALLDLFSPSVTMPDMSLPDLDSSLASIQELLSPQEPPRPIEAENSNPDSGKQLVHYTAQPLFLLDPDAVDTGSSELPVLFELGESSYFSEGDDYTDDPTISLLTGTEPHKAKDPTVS

Beta Lactamase = Beta Lactamase (Pseudomonas aeruginosa, UniProt Q932Y6); assay: beta-lactamase reporter inhibitor potency, dose response, artefact control for TLR9-MyD88 binding inhibitor project, BLA reporter cells, FRET fluorescence (AID 588341); format: cell-based;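 further: cell based assay in CHO-K1 cells stably expressing beta-lactamase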
Chain of Beta Lactamase (Q932Y6 whole entry, the tested form may be a part): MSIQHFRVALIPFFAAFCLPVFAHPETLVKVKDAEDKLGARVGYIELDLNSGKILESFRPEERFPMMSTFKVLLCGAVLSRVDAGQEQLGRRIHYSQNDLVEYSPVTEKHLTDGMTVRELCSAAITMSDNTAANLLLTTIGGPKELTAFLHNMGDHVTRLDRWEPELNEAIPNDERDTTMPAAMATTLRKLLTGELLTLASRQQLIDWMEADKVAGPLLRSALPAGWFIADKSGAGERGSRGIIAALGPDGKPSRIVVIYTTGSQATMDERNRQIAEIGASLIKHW

CHO = assay: cytotoxicity in TLR9-MyD88 CHO cells, dose response, cytotoxicity control for TLR9-MyD88 binding inhibitor project, cell-based, luminescence (AID 588339); format: functional, hamster; details: Cricetulus griseus;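 further: CHO cells stably coexpressing TLR9 and MyD88 fusions from primary screen; compound exposure lasted 48 hours before viability readout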
[11] = biological target: T4, Polyadenylate-binding protein 1 (Homo sapiens, UniProt P11940); assay: PABP1 MLLE–PAM2 binding inhibitor potency, dose response, biochemical, fluorescence polarization, FITC-PAM2 peptide (AID 602259); format: functional; details: read-out: IC50_Mean
T4 sequence (P11940 whole entry): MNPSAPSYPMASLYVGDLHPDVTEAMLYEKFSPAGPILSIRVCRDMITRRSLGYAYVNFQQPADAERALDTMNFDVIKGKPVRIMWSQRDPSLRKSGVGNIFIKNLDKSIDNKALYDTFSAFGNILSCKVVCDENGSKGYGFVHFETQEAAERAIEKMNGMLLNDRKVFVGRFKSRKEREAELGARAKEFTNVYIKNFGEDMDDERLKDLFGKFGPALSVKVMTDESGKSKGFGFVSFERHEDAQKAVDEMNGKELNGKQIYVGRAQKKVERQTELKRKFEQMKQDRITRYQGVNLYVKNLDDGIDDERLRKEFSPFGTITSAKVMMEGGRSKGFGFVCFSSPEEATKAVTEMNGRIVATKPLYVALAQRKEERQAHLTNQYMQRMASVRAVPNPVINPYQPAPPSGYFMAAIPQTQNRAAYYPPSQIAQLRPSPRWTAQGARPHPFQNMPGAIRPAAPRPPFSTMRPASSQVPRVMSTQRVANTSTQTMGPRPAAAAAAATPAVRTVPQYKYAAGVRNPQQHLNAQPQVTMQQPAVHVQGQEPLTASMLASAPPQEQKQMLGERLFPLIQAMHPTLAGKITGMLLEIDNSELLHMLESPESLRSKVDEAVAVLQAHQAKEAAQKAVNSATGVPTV

[12] = biological target: Female germline-specific tumor suppressor gld-1 (Caenorhabditis elegans, UniProt Q17339); assay: inhibitors of GLD-1 binding to TGE RNA, dose response, biochemical, fluorescence polarization, C. elegans (AID 2802);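 further: fluorescence polarization of labeled TGE RNA bound by purified gld-1 protein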
Chain of Female germline-specific tumor suppressor gld-1 (Q17339 whole entry): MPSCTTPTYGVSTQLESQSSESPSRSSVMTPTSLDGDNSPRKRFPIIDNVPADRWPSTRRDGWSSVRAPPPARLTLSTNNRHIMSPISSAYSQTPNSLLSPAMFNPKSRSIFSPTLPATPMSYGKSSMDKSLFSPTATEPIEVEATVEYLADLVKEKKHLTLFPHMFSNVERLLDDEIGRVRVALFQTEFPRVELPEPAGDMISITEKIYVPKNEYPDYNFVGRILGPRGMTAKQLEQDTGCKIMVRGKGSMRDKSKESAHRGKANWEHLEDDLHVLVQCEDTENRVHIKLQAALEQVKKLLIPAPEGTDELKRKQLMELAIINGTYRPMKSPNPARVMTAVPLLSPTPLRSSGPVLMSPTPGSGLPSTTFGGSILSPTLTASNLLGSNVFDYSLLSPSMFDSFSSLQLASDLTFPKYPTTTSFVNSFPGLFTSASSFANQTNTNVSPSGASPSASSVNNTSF

[13] = biological target: T4, Polyadenylate-binding protein 1; assay: PABP1 MLLE–PAM2 interaction inhibitors, dose response, miRNA deadenylation inhibitor project, biochemical, fluorescence polarization, Cy5-PAM2 peptide, secondary (AID 602260); format: functional; details: read-out: IC50_Mean
Protein Rev = Protein Rev (Human immunodeficiency virus type 1 group M subtype B (isolate HXB2)(HIV-1), UniProt P04618); assay: inhibitors of Rev binding to RRE RNA, dose response, biochemical, fluorescence polarization, HIV-1 (AID 434976); design: species or system Human immunodeficiency virus 1
Chain of Protein Rev (P04618 whole entry, the tested form may be a part): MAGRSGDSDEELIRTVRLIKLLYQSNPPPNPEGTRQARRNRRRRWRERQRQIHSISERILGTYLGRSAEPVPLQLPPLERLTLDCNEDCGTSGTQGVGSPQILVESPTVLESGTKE

[14] = biological target: 1-acylglycerol-3-phosphate O-acyltransferase ABHD5/Perilipin-5 (Homo sapiens, UniProt Q00G26+Q8WTS1); assay: Luminescence-based biochemical high throughput dose response assay for inhibitors of the interaction of the lipase co-activator protein, abhydrolase domain containing 5 (ABHD5) with perilipin-5 (MLDP; PLIN5) (2K validation set). [Related pubchem assays (depositor defined):AID493035, AID493241]
Chain of 1-acylglycerol-3-phosphate O-acyltransferase ABHD5/Perilipin-5 (Q00G26 whole entry, the tested form may be a part): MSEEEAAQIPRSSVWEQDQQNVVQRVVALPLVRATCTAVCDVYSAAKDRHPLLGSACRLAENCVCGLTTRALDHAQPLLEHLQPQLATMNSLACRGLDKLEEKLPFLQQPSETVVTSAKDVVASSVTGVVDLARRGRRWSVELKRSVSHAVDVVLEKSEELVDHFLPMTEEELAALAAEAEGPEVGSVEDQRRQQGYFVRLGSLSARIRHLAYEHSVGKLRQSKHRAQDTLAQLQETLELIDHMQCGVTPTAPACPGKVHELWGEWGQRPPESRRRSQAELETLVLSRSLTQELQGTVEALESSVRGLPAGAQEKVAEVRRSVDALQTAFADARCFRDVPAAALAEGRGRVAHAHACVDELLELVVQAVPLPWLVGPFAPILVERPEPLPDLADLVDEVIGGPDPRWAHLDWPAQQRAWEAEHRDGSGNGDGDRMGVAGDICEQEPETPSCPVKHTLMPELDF
Chain of 1-acylglycerol-3-phosphate O-acyltransferase ABHD5/Perilipin-5 (Q8WTS1 whole entry, the tested form may be a part): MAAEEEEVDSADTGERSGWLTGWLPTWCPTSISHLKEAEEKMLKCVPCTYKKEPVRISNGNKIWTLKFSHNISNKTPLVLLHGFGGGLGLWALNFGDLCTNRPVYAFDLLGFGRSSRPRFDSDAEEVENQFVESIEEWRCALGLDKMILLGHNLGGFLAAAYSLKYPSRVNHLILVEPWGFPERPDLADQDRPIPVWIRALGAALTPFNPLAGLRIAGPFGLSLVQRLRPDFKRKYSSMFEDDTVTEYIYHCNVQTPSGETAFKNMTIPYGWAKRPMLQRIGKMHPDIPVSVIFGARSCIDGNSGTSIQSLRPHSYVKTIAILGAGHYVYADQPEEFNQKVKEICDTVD

Perilipin-1/ABHD5 = Perilipin-1/ABHD5 (Homo sapiens, UniProt O60240+Q8WTS1); assay: Luminescence-based biochemical high throughput dose response assay for inhibitors of the interaction of the lipase co-activator protein, abhydrolase domain containing 5 (ABHD5) with perilipin-1 (PLIN1) (2K validation set). [Related pubchem assays (depositor defined):AID493027, AID493057]
Chain of Perilipin-1/ABHD5 (Q8WTS1 whole entry, the tested form may be a part): as above
Chain of Perilipin-1/ABHD5 (O60240 whole entry, the tested form may be a part): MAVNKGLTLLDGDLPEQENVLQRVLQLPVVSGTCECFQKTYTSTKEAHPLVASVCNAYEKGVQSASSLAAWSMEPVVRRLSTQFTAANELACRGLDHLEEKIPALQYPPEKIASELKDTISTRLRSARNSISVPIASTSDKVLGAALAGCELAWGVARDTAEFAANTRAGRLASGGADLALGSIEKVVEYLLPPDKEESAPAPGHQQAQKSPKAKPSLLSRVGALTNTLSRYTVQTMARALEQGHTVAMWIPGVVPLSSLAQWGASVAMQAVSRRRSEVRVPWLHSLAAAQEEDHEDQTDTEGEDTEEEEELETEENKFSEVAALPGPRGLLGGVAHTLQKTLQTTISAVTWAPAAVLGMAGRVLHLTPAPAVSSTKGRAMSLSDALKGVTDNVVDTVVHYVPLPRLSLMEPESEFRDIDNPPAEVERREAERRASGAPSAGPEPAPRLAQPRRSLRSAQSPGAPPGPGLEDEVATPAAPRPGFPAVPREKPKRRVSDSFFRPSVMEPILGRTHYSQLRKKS

cells [15] = format: functional, cell-based
[16] = biological target: T5, Zinc finger protein mex-5 (Caenorhabditis elegans, UniProt Q9XUB2); assay: MEX-5/TCR-2 RNA interaction inhibitors, dose response, biochemical, C. elegans, fluorescence polarization (AID 1960)
T5 sequence (Q9XUB2 whole entry): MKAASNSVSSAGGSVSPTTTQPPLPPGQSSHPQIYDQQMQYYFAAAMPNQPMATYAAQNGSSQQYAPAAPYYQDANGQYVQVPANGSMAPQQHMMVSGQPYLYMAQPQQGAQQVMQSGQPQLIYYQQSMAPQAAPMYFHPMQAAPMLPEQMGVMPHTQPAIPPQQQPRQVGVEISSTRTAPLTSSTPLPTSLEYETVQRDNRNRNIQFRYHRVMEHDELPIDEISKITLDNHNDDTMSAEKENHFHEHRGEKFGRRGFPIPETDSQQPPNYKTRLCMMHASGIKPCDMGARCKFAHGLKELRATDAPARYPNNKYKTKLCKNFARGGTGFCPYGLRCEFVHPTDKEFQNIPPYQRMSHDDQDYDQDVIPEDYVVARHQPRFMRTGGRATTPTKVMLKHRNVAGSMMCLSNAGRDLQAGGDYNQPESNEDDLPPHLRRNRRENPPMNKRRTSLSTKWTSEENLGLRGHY

[17] = biological target: T6, RNA-binding protein pos-1 (Caenorhabditis elegans, UniProt G5EF15); assay: inhibitors of POS-1/mex-3 RNA binding, dose response, biochemical, fluorescence polarization (AID 1964);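 further: purified POS-1 fused to maltose binding protein made in E. coli; potency of compounds blocking POS-1 binding to fluorescent RNA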
T6 sequence (G5EF15 whole entry): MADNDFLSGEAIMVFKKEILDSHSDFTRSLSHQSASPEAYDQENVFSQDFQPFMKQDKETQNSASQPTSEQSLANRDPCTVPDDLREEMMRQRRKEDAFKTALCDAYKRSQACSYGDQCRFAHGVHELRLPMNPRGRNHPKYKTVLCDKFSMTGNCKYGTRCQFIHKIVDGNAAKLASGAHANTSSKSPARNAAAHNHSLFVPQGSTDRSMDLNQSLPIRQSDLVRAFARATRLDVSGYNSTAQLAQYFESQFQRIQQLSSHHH

[18] = biological target: FAD-linked sulfhydryl oxidase ALR (Homo sapiens, UniProt P55789); assay: inhibitors of human ALR sulfhydryl oxidase, dose response, biochemical, H2O2 detection, luminescence, cherry-pick (AID 493248)
Chain of FAD-linked sulfhydryl oxidase ALR (P55789 whole entry): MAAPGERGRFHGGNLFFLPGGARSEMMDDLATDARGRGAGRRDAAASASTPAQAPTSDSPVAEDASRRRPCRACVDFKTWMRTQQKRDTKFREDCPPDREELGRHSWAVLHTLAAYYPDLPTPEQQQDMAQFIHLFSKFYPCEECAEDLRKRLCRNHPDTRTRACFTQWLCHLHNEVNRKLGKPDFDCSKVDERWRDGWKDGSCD

cells [19] = format: functional, cell-based; remark: listed apart in the source
Large T antigen = Large T antigen (Simian virus 40, UniProt P03070); format: functional, Betapolyomavirus macacae;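 further: Confirmatory-stage PubChem screen for compounds that inhibit SV40 T antigen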
[20] = biological target: Melanin-concentrating hormone receptor 1 (Homo sapiens, UniProt Q99705); assay: Late-stage fluorescence-based counterscreen for antagonists of the G-protein coupled receptor 7 (GPR7): cell-based dose response assay to identify antagonists of the melanin-concentrating hormone receptor 1 (MCHR1). [Related pubchem assays (depositor defined):AID1861, AID1880, AID1952, AID2148, AID2251, AID2257, AID485339]; format: functional;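 further: stimulated with 30 nM MCH peptide agonist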
Chain of Melanin-concentrating hormone receptor 1 (Q99705 whole entry): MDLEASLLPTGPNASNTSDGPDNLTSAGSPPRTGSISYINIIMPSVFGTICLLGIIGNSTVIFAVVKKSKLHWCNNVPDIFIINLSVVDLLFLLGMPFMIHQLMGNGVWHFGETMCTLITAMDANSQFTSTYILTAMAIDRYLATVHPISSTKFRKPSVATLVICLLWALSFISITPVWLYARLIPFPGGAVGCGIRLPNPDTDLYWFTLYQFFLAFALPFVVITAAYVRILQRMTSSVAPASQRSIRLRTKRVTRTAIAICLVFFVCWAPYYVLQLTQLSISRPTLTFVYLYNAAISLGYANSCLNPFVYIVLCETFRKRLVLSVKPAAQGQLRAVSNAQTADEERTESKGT

[21] = biological target: Voltage-gated N-type calcium channel alpha-1B subunit/Amyloid beta A4 precursor protein-binding family A member 1 (Homo sapiens, UniProt Q00975+Q02410); assay: disruptors of Mint-PDZ/N-type channel peptide interaction – biochemical, HTRF, set 2, SAR follow-up (AID 434980); format: functional
Beta-galactosidase = Beta-galactosidase (Escherichia coli, UniProt Q8VNN2); assay: beta-galactosidase enzyme inhibitors and activators, dose response, artefact control for CCR6 antagonist project, biochemical, E. coli enzyme, set 3 (AID 504712); format: functional

Structure (SMILES): CCOC(=O)c1cnc(-n2nc(C)cc2C)nc1NC(C)c1ccccc1 (centres undefined)
- EC50 [1]: 5.04 µM (active)
- EC50 [2]: 1.46 µM (active)
- EC50 [3]: > 60 µM (not active)
- IC50 [4]: > 67 µM (not active)
- IC50 [5]: 5.88 µM (active)
- AC50 (INS1): 4.89 µM (active)
- EC50 (Streptococcus): 5.89 µM (active)

Structure (SMILES): O=C(/C=C/c1ccc(O)c(O)c1)NC(=O)c1ccccc1O
- IC50 (Procathepsin L): > 59.6 µM (not active)
- IC50 (Aspartyl aminopeptidase): 1.47 µM (active)
- IC50 [6]: 20.2 µM (active)

Structure (SMILES): COc1ccc2[nH]c(Sc3c([N+](=O)[O-])nc(C)n3Cc3ccccc3)nc2c1
- EC50 [7]: 8.94 µM (active)
- IC50 [8]: > 80 µM (inactive)
- EC50 [9]: 9.43 µM (active)
- EC50 [10]: 8.34 µM (active)

Structure (SMILES): O=C(CN1C(=O)NC2(CCCCC2)C1=O)Oc1ccc2c(C(F)(F)F)cc(=O)oc2c1
- IC50 (Beta Lactamase): 3.48 µM (active)
- IC50 (CHO): > 49.7 µM (inactive)
- IC50 [11]: 38.3 µM (inactive)
- IC50 [12]: 4.07 µM (active)
- IC50 [13]: > 66 µM (inactive)
- IC50 (Protein Rev): 65.3 µM (not active)

Structure (SMILES): COc1ccc(C(=O)/C=C/c2cc(C(=O)O)cc3c2OCOC3)c(O)c1
- IC50 [14]: 6.24 µM (active)
- IC50 (Perilipin-1/ABHD5): 4.42 µM (active)

Structure (SMILES): Oc1ccc(-c2cn3ccccc3n2)cc1O
- EC50 (cells [15]): > 350 µM (not active)
- IC50 (Procathepsin L): > 59.6 µM (not active)
- IC50 (Aspartyl aminopeptidase): 2.56 µM (active)
- EC50 [16]: 13.6 µM (active)
- EC50 [17]: > 300 µM (not active)
- AC50 [18]: 1.32 µM (active)
- EC50 (cells [19]): 25.3 µM (active)
- IC50 (Large T antigen): 5.28 µM (active)

Structure (SMILES): Clc1ccc(-n2nnnc2-c2cnc(-c3ccccn3)nc2-c2cccs2)cc1
- IC50 [4]: > 67 µM (not active)
- IC50 [5]: 4.64 µM (active)

Structure (SMILES): COc1ccc(NS(=O)(=O)c2ccc(Cl)s2)cn1
- IC50 [11]: 14.9 µM (active)
- IC50 [12]: 4.54 µM (active)
- IC50 [13]: > 66 µM (inactive)
- IC50 (Protein Rev): 6.3 µM (active)

Structure (SMILES): Cc1ccccc1CN1CCCCC1C(=O)N1CCN(c2ccc([N+](=O)[O-])cc2)CC1 (centres undefined)
- IC50 [20]: 5.8 µM (active)

Structure (SMILES): CC(C)(C)CCNC(=O)c1cc(-c2ccco2)nc2ccccc12
- IC50 [21]: > 56.8 µM (inactive)

Structure (SMILES): COCC/N=c1\scc(-c2ccc3c(c2)NC(=O)CO3)n1/N=C(\C)c1ccc(O)cc1
- IC50 (Beta-galactosidase): > 66.6 µM (inactive)
